Legend:
[1] = 101.33 kPa, Liquid; for speed of sound: Sing-around technique in a fixed-path interferometer; for mass density: Vibrating tube method
[2] = molar heat capacity at constant pressure; details: 101.33 kPa, Liquid, DSC

CCCCC[n+]1ccn(CCCC)c1.O=S(=O)([N-]S(=O)(=O)C(F)(F)F)C(F)(F)F
Details	mass density, [1] [kg/m3]	molar heat capacity at constant pressure, [2] [J/K/mol]	speed of sound, [1] [m/s]
287.15 K	1327.3	–	1239.6
289.15 K	1325.5	–	1234.8
291.15 K	1323.7	–	1230
293.15 K	1321.9	683.58	1225.3
294.15 K	–	684.63	–
295.15 K	1320.1	685.3	1220.6
296.15 K	–	685.96	–
297.15 K	1318.3	686.63	1216
298.15 K	–	687.34	–
299.15 K	1316.5	687.96	1211.3
300.15 K	–	688.62	–
301.15 K	1314.7	689.29	1206.7
302.15 K	–	690	–
303.15 K	1312.9	690.67	1202.1
304.15 K	–	691.38	–
305.15 K	1311.1	692.05	1197.6
306.15 K	–	692.76	–
307.15 K	1309.4	693.52	1193
308.15 K	–	694.28	–
309.15 K	1307.6	694.95	1188.5
310.15 K	–	695.57	–
311.15 K	1305.8	696.23	1184
312.15 K	–	697.09	–
313.15 K	1304	697.9	1179.6
314.15 K	–	698.7	–
315.15 K	1302.3	699.42	1175.1
316.15 K	–	700.08	–
317.15 K	1300.5	700.84	1170.7
318.15 K	–	701.65	–
319.15 K	1298.8	702.37	1166.3
320.15 K	–	703.22	–
321.15 K	1297	703.98	1161.8
322.15 K	–	704.74	–
323.15 K	1295.2	705.5	1157.5
324.15 K	–	706.26	–
325.15 K	1293.5	707.07	1153.1
326.15 K	–	707.83	–
327.15 K	1291.7	708.69	1148.7
328.15 K	–	709.54	–
329.15 K	1290	710.35	1144.4
330.15 K	–	711.07	–
331.15 K	1288.3	711.87	1140.1
332.15 K	–	712.64	–
333.15 K	1286.5	713.4	1135.8
334.15 K	–	714.16	–
335.15 K	1284.8	714.87	1131.5
336.15 K	–	715.68	–
337.15 K	1283	716.44	1127.3
338.15 K	–	717.2	–
339.15 K	1281.3	718.01	1123
340.15 K	–	718.67	–
341.15 K	1279.6	719.43	1118.8
342.15 K	–	719.96	–
343.15 K	1277.8	720.62	1114.7
344.15 K	–	721.24	–
345.15 K	–	721.86	–
346.15 K	–	722.48	–
347.15 K	–	723.29	–
348.15 K	–	724.47	–

From the NIST ThermoML archive (doi:10.1016/j.fluid.2017.03.021)
